This data set relates to ciliated epithelium of the trachea of chicken embryos. The data set can be described thus: standard test for examining ciliary function (ciliary frequency of tracheal ciliated epithelium tissue pieces). Conditions: orienting tests; compared with results of table 2. In kind it is cell-based. From the text: In a standard test for examining ciliary function, a conventional preparation for nasal administration having a phosphate/citrate buffer and benzalkonium chloride as preservative was compared in each case with a preparation of the invention having malic acid as buffer and benzalkonium chloride as preservative.
Pieces of tissue from ciliated epithelium of the trachea of chicken embryos are employed in the tests on which the comparison is based, reference being made for details of the tests to S. G. Romejn et al., Int. J. of Pharmac. 135 (1996) 137-145 and van De Donk et al., Rhinology, 20 (1982) 81-87.
The self-cleaning of the nasal mucosa is then simulated by washing out the respective solutions and adding Ringer's solution for 45 min.
After exposure for 15 min, the ciliary frequency is reduced distinctly less by the exemplary solutions with malic acid buffer than by the reference solutions. The self-cleaning of the nasal mucosa is then simulated by washing out the test solutions and adding Ringer's solution for 45 min. A distinctly better recovery of the ciliary beating force, which extends to more than ¾ of the initial beating force (of 100%), is achieved thereby with the exemplary solutions with malic acid buffer. […]

The record followed here is patent US20060127317A1, “Nasallly applicable pharmaceutical preparation and the production thereof” (priority 2002, published 2006).

`O=C(O)c1cc(=O)c2c(OCC(O)COc3cccc4oc(C(=O)O)cc(=O)c34)cccc2o1` [cromoglicic acid]: the “reduction in ciliary activity and regeneration of the cilia (result in words)” value is given as “similar”.

For the molecule calcitonin [calcitonin (from salmon)], the “reduction in ciliary activity and regeneration of the cilia (result in words)” value is listed as “similar”.
